Experimental data published in patent US20160251725A1, “METHOD FOR PREDICTING CLINICAL TOXICITY AND OUTCOME” (AGENCY FOR SCIENCE, TECHNOLOGY AND RESEARCH, priority 2013, published 2016).
Read-outs that look alike come from different tables or passages of the source.

Experiments:
[1] = test system: mRCC patients; assay: Tumor response to sunitinib (RECIST version 1.1), clinical benefit / primary resistance; assay type: in vivo, human
Method: (§1) Twelve patients in this study received a starting dose of 50 mg daily. Six patients started with 25 mg daily due to advanced age or patients' aversion to expected toxicities.
Patient characteristics were also collected including age, gender, ethnicity, body weight and height, and Eastern Cooperative Oncology Group (ECOG) performance status. Memorial Sloan-Kettering Cancer Center (MSKCC) prognostic score was calculated for each patient with available data. All the collected data were de-identified by a third party before being used in statistical analysis. The follow-up period ended at the end of April, 2014.
(§2) Genotype associations with toxicity events or responsive tumor were first analyzed using univariate logistic regression. Genotypes generating P<0.20 were further analyzed using multivariate logistic regression including patient age, gender, baseline ECOG status and starting dose as covariates. Progression-free survival and overall survival were estimated by means of Kaplan-Meier method, while the associations of genotypes and patient characteristics with PFS and OS were analyzed using two-tailed log rank test. The effects of genotypes on the progression-free survival and overall survival were then evaluated using multivariate Cox regression model by including genotypes and patient characteristics with P<0.05 in univariate analysis. […] In all analyses, missing data were kept missing except for baseline ECOG status, which was replaced with the median value. As this was designed as a validation study of previously observed correlations rather than an exploratory evaluation, multiple testing correction was not done.

[2] = test system: patients; details: cited from earlier work; for Dose reductions: n = 96, Beuselinck et al., 2014
[3] = test system: mRCC patients; assay: Progression-free and overall survival on first-line sunitinib (Kaplan-Meier, Cox regression); assay type: in vivo, human; details: for Overall survival HR multivariate / Progression-free survival HR multivariate: starting dose as covariate
Method: as §1, §2

[4] = ABCB1 haplotype TTT/TTT vs Other
[5] = ABCG2 421 C/A AA genotype, n = 65, Kim et al., 2013
[6] = ABCB1 haplotype TTT/TTT (homozygous carriers)

CCN(CC)CCNC(=O)c1c(C)[nH]c(/C=C2\C(=O)Nc3ccc(F)cc32)c1C [sunitinib]
Clinical benefit prevalence ([1]; ABCB1 2677 G/TA Other): 55/79 | Clinical benefit prevalence ([1]; ABCB1 2677 G/TA TT): 4/11 | Clinical benefit OR multivariate ([1]; ABCB1 2677 TT vs Other): 0.1 | Clinical benefit OR univariate ([1]; ABCB1 2677 TT vs Other): 0.3 | Clinical benefit prevalence ([1]; ABCB1 3435 C/T CC + CT): 54/78 | Clinical benefit prevalence ([1]; ABCB1 3435 C/T TT): 5/12 | Clinical benefit OR multivariate ([1]; ABCB1 3435 TT vs CC + CT): 0.2 | Clinical benefit OR univariate ([1]; ABCB1 3435 TT vs CC + CT): 0.3 | Clinical benefit prevalence ([1]; ABCB1 haplotype Other): 57/82 | Clinical benefit prevalence ([1]; ABCB1 haplotype TTT/TTT): 2/8 | Clinical benefit OR multivariate [1, 4]: 0.1 | Clinical benefit OR univariate [1, 4]: 0.2 | Clinical benefit OR univariate ([1]; Age): 1.0 | Clinical benefit prevalence ([1]; Baseline ECOG 0): 20/25 | Clinical benefit prevalence ([1]; Baseline ECOG 1): 31/49 | Clinical benefit OR univariate ([1]; Baseline ECOG 1 vs 0): 0.4 | Clinical benefit prevalence ([1]; Baseline ECOG 2): 5/11 | Clinical benefit OR univariate ([1]; Baseline ECOG 2 vs 0): 0.2 | Clinical benefit prevalence ([1]; Baseline ECOG 3): 3/5 | Clinical benefit OR univariate ([1]; Baseline ECOG 3 vs 0): 0.4 | Clinical benefit OR univariate ([1]; Female vs Male): 1.2 | Clinical benefit prevalence ([1]; Gender Female): 13/19 | Clinical benefit prevalence ([1]; Gender Male): 46/71 | Clinical benefit prevalence ([1]; Starting dose 37.5 mg): 49/75 | Clinical benefit prevalence ([1]; Starting dose 50 mg): 9/11 | Clinical benefit OR univariate ([1]; Starting dose 37.5 vs ≦37.5 mg): 5.7 | Clinical benefit prevalence ([1]; Starting dose ≦37.5 mg): 1/4 | Clinical benefit prevalence (cases with PR or SD as best response/total in group) ([1]; all patients (n = 90)): 59/90 | Dose reductions ([2]; ABCB1 1236 T/C TT genotype): Less dose | Dose reductions ([2]; ABCB1 2677G/TA TT or TA genotypes): Less dose | HFS (hand-foot syndrome) ([2]; ABCB1 TTT haplotype, n = 219, van Erp et al., 2009): HFS increased | HFS (hand-foot syndrome) [2, 5]: More | Neutropenia [2, 5]: More | Thrombocytopenia [2, 5]: More | Any toxicity grade>2 ([2]; in vivo): increased with T | Leucopenia ([2]; in vivo): increased with T | Median overall survival ([3]; ABCB1 1236 T/C CC + CT): 20 months | Median progression-free survival ([3]; ABCB1 1236 T/C CC + CT): 11.7 months | Median overall survival ([3]; ABCB1 1236 T/C TT): 10.4 months | Median progression-free survival ([3]; ABCB1 1236 T/C TT): 3.6 months | Overall survival HR univariate ([3]; ABCB1 1236 TT vs CC + CT): 1.7 | Progression-free survival HR univariate ([3]; ABCB1 1236 TT vs CC + CT): 1.7 | Overall survival HR multivariate ([3]; ABCB1 1236 TT vs CC + CT): 1.7 | Progression-free survival HR multivariate ([3]; ABCB1 1236 TT vs CC + CT): 1.7 | Median overall survival ([3]; ABCB1 2677 G/TA Other): 19.6 months | Median progression-free survival ([3]; ABCB1 2677 G/TA Other): 8.4 months | Median overall survival ([3]; ABCB1 2677 G/TA TT): 5.9 months | Median progression-free survival ([3]; ABCB1 2677 G/TA TT): 2.7 months | Overall survival HR univariate ([3]; ABCB1 2677 TT vs Other): 2.9 | Progression-free survival HR univariate ([3]; ABCB1 2677 TT vs Other): 2.3 | Overall survival HR multivariate ([3]; ABCB1 2677 TT vs Other): 2.0 | Progression-free survival HR multivariate ([3]; ABCB1 2677 TT vs Other): 1.5 | Median overall survival ([3]; ABCB1 3435 C/T CC + CT): 19.5 months | Median progression-free survival ([3]; ABCB1 3435 C/T CC + CT): 8.4 months | Median overall survival ([3]; ABCB1 3435 C/T TT): 7.2 months | Median progression-free survival ([3]; ABCB1 3435 C/T TT): 2.7 months | Overall survival HR univariate ([3]; ABCB1 3435 TT vs CC + CT): 1.6 | Progression-free survival HR univariate ([3]; ABCB1 3435 TT vs CC + CT): 1.7 | Overall survival HR multivariate ([3]; ABCB1 3435 TT vs CC + CT): 1.7 | Progression-free survival HR multivariate ([3]; ABCB1 3435 TT vs CC + CT): 1.7 | Median overall survival ([3]; ABCB1 haplotype Other): 19.6 months | Median progression-free survival ([3]; ABCB1 haplotype Other): 8.4 months | Median overall survival [3, 6]: 4.6 months | Median progression-free survival [3, 6]: 2.4 months | Overall survival HR univariate [3, 4]: 3.9 | Progression-free survival HR univariate [3, 4]: 4.9 | Overall survival HR multivariate [3, 4]: 5.0 | Progression-free survival HR multivariate [3, 4]: 5.5 | Overall survival HR univariate ([3]; Age): 1.0 | Progression-free survival HR univariate ([3]; Age): 1.0 | Median overall survival ([3]; Baseline ECOG 0): 32.9 months | Median progression-free survival ([3]; Baseline ECOG 0): 16.1 months | Median overall survival ([3]; Baseline ECOG 1): 19.6 months | Median progression-free survival ([3]; Baseline ECOG 1): 6.9 months | Overall survival HR univariate ([3]; Baseline ECOG 1 vs 0): 1.9 | Progression-free survival HR univariate ([3]; Baseline ECOG 1 vs 0): 2.2 | Median overall survival ([3]; Baseline ECOG 2): 5.7 months | Median progression-free survival ([3]; Baseline ECOG 2): 3.3 months | Overall survival HR univariate ([3]; Baseline ECOG 2 vs 0): 3.0 | Progression-free survival HR univariate ([3]; Baseline ECOG 2 vs 0): 2.8 | Median overall survival ([3]; Baseline ECOG 3): 15.7 months | Median progression-free survival ([3]; Baseline ECOG 3): 12.9 months | Overall survival HR univariate ([3]; Baseline ECOG 3 vs 0): 2.7 | Progression-free survival HR univariate ([3]; Baseline ECOG 3 vs 0): 2.8 | Median overall survival ([3]; Gender Female): 19.9 months | Median progression-free survival ([3]; Gender Female): 10.0 months | Median overall survival ([3]; Gender Male): 16.3 months | Median progression-free survival ([3]; Gender Male): 8.1 months | Median overall survival ([3]; MSKCC Good): 41.4 months | Median progression-free survival ([3]; MSKCC Good): 12.6 months | Median overall survival ([3]; MSKCC Intermediate): 19.6 months | Median progression-free survival ([3]; MSKCC Intermediate): 10.0 months | Overall survival HR univariate ([3]; MSKCC Intermediate vs Good): 2.2 | Progression-free survival HR univariate ([3]; MSKCC Intermediate vs Good): 1.3 | Median overall survival ([3]; MSKCC Poor): 14 months | Median progression-free survival ([3]; MSKCC Poor): 5.5 months | Overall survival HR univariate ([3]; MSKCC Poor vs Good): 3.1 | Progression-free survival HR univariate ([3]; MSKCC Poor vs Good): 2.3 | Overall survival HR univariate ([3]; Male vs Female): 1.1 | Progression-free survival HR univariate ([3]; Male vs Female): 1.1 | Median overall survival ([3]; Starting dose 37.5 mg): 19.5 months | Median progression-free survival ([3]; Starting dose 37.5 mg): 8.3 months | Median overall survival ([3]; Starting dose 50 mg): 47.4 months | Median progression-free survival ([3]; Starting dose 50 mg): 17.3 months | Overall survival HR univariate ([3]; Starting dose 37.5 vs ≦37.5 mg): 0.2 | Overall survival HR univariate ([3]; Starting dose 50 vs ≦37.5 mg): 0.1 | Median overall survival ([3]; Starting dose ≦37.5 mg): 4.6 months | Median progression-free survival ([3]; Starting dose ≦37.5 mg): 1.8 months | Median overall survival ([3]; all 81 first-line patients): 19.5 months | Median progression-free survival ([3]; all 81 first-line patients): 8.1 months
